Experimental data from the supplement of paper PMC8960247.
Counter-ions that a name gives are not always drawn. ± gives the standard error.

Key:
621-102 (TSC2-deficient) = test: relative viability vs DMSO; higher = less cytotoxic; details: serum: 10% FBS, 72 h
621-103 (TSC2-rescued) = test: as above; details: serum: 10% FBS, 72 h
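Also: immortalized renal angiomyolipoma cells stably carrying empty vector or TSC2, dosed in 384-well plates in DMEM, viability normalized to vehicle-treated wells within each plate.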

Row | Compound | relative viability (621-102 (TSC2-deficient); 0.0001 µM) [%] | relative viability (621-102 (TSC2-deficient); 0.001 µM) [%] | relative viability (621-102 (TSC2-deficient); 0.01 µM) [%] | relative viability (621-102 (TSC2-deficient); 0.1 µM) [%] | relative viability (621-102 (TSC2-deficient); 1 µM) [%] | relative viability (621-102 (TSC2-deficient); 10 µM) [%] | relative viability (621-103 (TSC2-rescued); 0.0001 µM) [%] | relative viability (621-103 (TSC2-rescued); 0.001 µM) [%] | relative viability (621-103 (TSC2-rescued); 0.01 µM) [%] | relative viability (621-103 (TSC2-rescued); 0.1 µM) [%] | relative viability (621-103 (TSC2-rescued); 1 µM) [%] | relative viability (621-103 (TSC2-rescued); 10 µM) [%]
1 | Cc1ccc(S(=O)(=O)OCC(=O)Nc2ccc(C(=O)O)c(O)c2)cc1 [S31-201] | 119.8 ± 0.59 | 125 ± 1.4 | 123 ± 3.5 | 121 ± 3.3 | 112 ± 1.6 | 119.2 ± 0.71 | 99.4 ± 2 | 98.17 ± 0.7 | 104 ± 2.1 | 102.7 ± 0.83 | 100 ± 1.8 | 101 ± 1.9
2 | Cc1ccccc1-n1c(Cn2cnc3c(N)ncnc32)nc2cccc(C)c2c1=O | 108.5 ± 0.61 | 117.2 ± 0.36 | 118 ± 4 | 116.3 ± 0.6 | 101.3 ± 0.42 | 99.9 ± 0.73 | 100.1 ± 0.63 | 100.4 ± 0.26 | 98 ± 1.1 | 100 ± 1.5 | 99.34 ± 0.9 | 96.2 ± 2.4
3 | Cc1cccc(-c2[nH]c(C(C)(C)C)nc2-c2ccc3nccnc3c2)n1 | 115.4 ± 0.35 | 111 ± 2.5 | 101.9 ± 0.66 | 108.6 ± 0.23 | 105 ± 2.2 | 38.9 ± 2.9 | 98.4 ± 1.4 | 99.6 ± 2.7 | 97.58 ± 0.26 | 95.9 ± 2.7 | 97.18 ± 0.62 | 83.8 ± 1.5
4 | CC(C)c1cnn2c(NCc3ccccc3)cc(NCCCCCCN)nc12 [BS-181] | 112 ± 2.3 | 107 ± 3.7 | 106.4 ± 0.99 | 94.74 ± 0.88 | 116 ± 2.2 | 81.2 ± 7.1 | 101 ± 2.2 | 101.1 ± 1 | 99.7 ± 1.7 | 88.3 ± 1.2 | 100 ± 1.4 | 55.7 ± 5.2
5 | COc1ncc(-c2ccc3nccc(-c4ccnnc4)c3c2)cc1NS(=O)(=O)c1ccc(F)cc1F | 80.7 ± 11 | 68.1 ± 1.7 | 59.2 ± 0.65 | 38.9 ± 1.5 | 23.3 ± 2 | 26.3 ± 1.8 | 107 ± 3.9 | 101.89 ± 0.069 | 91 ± 4.4 | 61.4 ± 2.5 | 47.565 ± 0.012 | 41 ± 2.4
6 | CCCN[C@H]1CCc2nc(N)sc2C1 [Pramipexole dihydrochloride monohydrate] | 91.3 ± 7.3 | 84.5 ± 4.2 | 101 ± 2.4 | 102 ± 1.4 | 91.4 ± 1.3 | 94.4 ± 1.9 | 98.1 ± 4.4 | 95.62 ± 0.72 | 101 ± 2.9 | 101 ± 1.8 | 105 ± 2.4 | 100.5 ± 0.52
7 | COc1cc(Nc2ncc(F)c(Nc3ccc4c(n3)NC(=O)C(C)(C)O4)n2)cc(OC)c1OC [R406 (free base)] | 114.2 ± 0.84 | 110 ± 2.3 | 105 ± 1.1 | 105 ± 1.2 | 105.4 ± 0.42 | 101 ± 2.1 | 99.45 ± 0.77 | 98.41 ± 0.3 | 101.7 ± 0.23 | 99.5 ± 1.3 | 98.1 ± 0.7 | 70.26 ± 0.23
8 | C[C@@](Cc1ccc(O)c(O)c1)(NN)C(=O)O [Carbidopa] | 97.3 ± 3.2 | 104 ± 5.4 | 90.03 ± 0.71 | 103 ± 1.6 | 99.6 ± 2.6 | 89.7 ± 1.3 | 92 ± 1.9 | 103.2 ± 0.12 | 93.7 ± 2.5 | 107 ± 2.1 | 104 ± 4.8 | 92.1 ± 1.4
9 | Cc1nc(-c2ccc(OCC(C)C)c(C#N)c2)sc1C(=O)O [Febuxostat] | 104 ± 2.3 | 104 ± 2.4 | 102.5 ± 0.48 | 105 ± 5.9 | 100.8 ± 0.75 | 99.9 ± 2.2 | 104 ± 2.5 | 100.5 ± 0.98 | 101 ± 2.4 | 102 ± 4 | 98.3 ± 0.27 | 101.3 ± 0.28
10 | Cc1cc(C(=O)NOCCO)c(Nc2ccc(I)cc2F)n(C)c1=O [AZD8330] | 103 ± 1.4 | 102 ± 2.7 | 99.3 ± 1.3 | 96.05 ± 0.59 | 65.9 ± 1.7 | 58.5 ± 0.66 | 101.1 ± 0.99 | 92.9 ± 1.4 | 93.3 ± 1.4 | 93.1 ± 2.1 | 76.3 ± 0.95 | 68.4 ± 0.99
11 | CC(O)(CS(=O)(=O)c1ccc(F)cc1)C(=O)Nc1ccc(C#N)c(C(F)(F)F)c1 (stereo not drawn) [Bicalutamide (Casodex)] | 126 ± 1.3 | 119 ± 3.4 | 112 ± 1.2 | 102 ± 2.8 | 110.6 ± 0.79 | 112 ± 1.8 | 105.2 ± 0.55 | 102 ± 1.1 | 101.3 ± 0.41 | 102 ± 1.6 | 102.5 ± 0.88 | 102 ± 1.1
12 | CCNC(=O)c1cc2c(-c3cc(OCCN4CCCC4)c(Cl)cc3Cl)nc(N)nc2s1 [NVP-BEP800] | 97.39 ± 0.18 | 102 ± 6.3 | 107 ± 5.5 | 102 ± 1.2 | 56.1 ± 4 | 19.3 ± 1.1 | 101 ± 2.1 | 99.72 ± 0.67 | 99.48 ± 0.53 | 107 ± 2 | 43.99 ± 0.26 | 4.6 ± 0.3
13 | CN1CCC(CNc2ccc3ncc(-c4cccc(OC(F)(F)F)c4)n3n2)CC1 [SGI-1776] | 93.93 ± 0.059 | 110 ± 1.1 | 98.6 ± 2.4 | 96.61 ± 0.13 | 86.6 ± 1.3 | 0.96 ± 0.17 | 94.08 ± 0.52 | 101 ± 1.6 | 101 ± 1.6 | 98.8 ± 2.8 | 82.6 ± 2 | 0.884 ± 0.13
14 | CN1C2CCCC1CC(NC(=O)c1nn(C)c3ccccc13)C2 (stereo not drawn) [Granisetron HCl] | 101 ± 3.8 | 99.5 ± 1 | 94.6 ± 1.2 | 99.56 ± 0.18 | 102.3 ± 0.95 | 95.1 ± 1.5 | 105.6 ± 0.89 | 102 ± 1.7 | 106.4 ± 0.23 | 106 ± 5.2 | 103 ± 4.2 | 102 ± 3
15 | CC(C)CC(=O)Nc1n[nH]c2c1CN(C(=O)C1CCN(C)CC1)C2(C)C | 105.5 ± 0.63 | 109 ± 4 | 103 ± 2.3 | 93.5 ± 0.62 | 79 ± 1.2 | 13.5 ± 0.25 | 100.3 ± 0.33 | 101 ± 2 | 102 ± 1.2 | 102 ± 1.3 | 94.4 ± 1.7 | 22.5 ± 1.5
16 | CNC(=O)c1cc(COc2nnc(Nc3ccc(Cl)cc3)c3ccoc23)ccn1 [Telatinib (BAY57-9352)] | 94.64 ± 0.47 | 95.1 ± 4.9 | 83.7 ± 2.7 | 94.8 ± 1.5 | 84.3 ± 1.3 | 48.4 ± 3.9 | 114 ± 2.4 | 103.1 ± 0.34 | 100 ± 2.4 | 108 ± 2 | 104 ± 1.8 | 55.8 ± 4.5
17 | O=C1NC(=O)C(c2ccccc2)(c2ccccc2)N1 [Phenytoin] | 109 ± 0.34 | 119 ± 4.6 | 101 ± 3 | 105 ± 1.9 | 97.4 ± 5 | 99.7 ± 1.3 | 105 ± 3.8 | 106 ± 6.7 | 100.3 ± 0.63 | 106 ± 4.5 | 101 ± 3 | 101 ± 7.8
18 | COc1ccc(-c2cc3c(C)nc(N)nc3n([C@H]3CC[C@H](OCCO)CC3)c2=O)cn1 | 101 ± 5.6 | 110 ± 2.5 | 91.2 ± 5 | 65.6 ± 0.94 | 26.7 ± 0.68 | 14.1 ± 0.26 | 92.8 ± 1.8 | 98.4 ± 2.6 | 88.1 ± 2.7 | 56.7 ± 2 | 30.52 ± 0.21 | 18.61 ± 0.18
19 | O=C(c1ccc(F)cc1)C1CCN(CCn2c(=O)[nH]c3ccccc3c2=O)CC1 [Ketanserin (Vulketan Gel)] | 89 ± 2.5 | 103 ± 2.1 | 98.4 ± 2 | 103.9 ± 0.64 | 92.4 ± 3.8 | 88.1 ± 1.1 | 113.6 ± 1.1 | 103 ± 2.4 | 102.89 ± 0.072 | 105.8 ± 0.41 | 107 ± 1.4 | 96.3 ± 1
